Molecules are shown by their SMILES.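 Following 48 hours of exposure in 96-well plates, responses at five concentrations were used to interpolate endpoints linearly. Definition used: TGI = concentration required for complete inhibition of growth.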

These results are taken from PubChem BioAssay (NCI).

The subject of the first assay is SF-539 CNS. Briefly: inhibition of tumour cell growth, NCI panel, 48 h.
`O=c1[nH]c2cc(Cl)ccc2nc1/C(=N\O)C(O)c1cccc([N+](=O)[O-])c1` (centres undefined) yielded a TGI of more than 100 µM.

The next assay deals with SK-MEL-2 melanoma. Briefly: inhibition of tumour cell growth, NCI panel, 48 h.
In turn, `NC1=C(NC(=O)Cc2ccc(F)cc2)C(=O)c2ccccc2C1=O` yielded a TGI of more than 100 µM.

For the compound `COc1cc(/C=C2/C(=O)N(C(=O)OCC(C)C)C(Cc3cc(OC)c(OC)c(C)c3OC)C(=O)N2Cc2ccccc2)c(OC)c(C)c1OC` (centres undefined), the TGI is more than 100 µM.

`NC(=O)N/N=C(\CC1OC(=O)c2ccccc21)c1ccco1` (centres undefined): the TGI is more than 100 µM.

For a further assay, the system named is SK-MEL-28 melanoma. Briefly: inhibition of tumour cell growth, NCI panel, 48 h.
`NC1=C(NC(=O)Cc2ccc(F)cc2)C(=O)c2ccccc2C1=O` yielded a TGI of more than 100 µM.

In turn, `COc1cc(/C=C2/C(=O)N(C(=O)OCC(C)C)C(Cc3cc(OC)c(OC)c(C)c3OC)C(=O)N2Cc2ccccc2)c(OC)c(C)c1OC` (centres undefined) gave a TGI of more than 100 µM.

For the compound `NC(=O)N/N=C(\CC1OC(=O)c2ccccc21)c1ccco1` (centres undefined), the TGI was more than 100 µM.

Consider `O=c1[nH]c2cc(Cl)ccc2nc1/C(=N\O)C(O)c1cccc([N+](=O)[O-])c1` (centres undefined), for which the TGI was more than 100 µM.

The test system of another assay is SK-MEL-5 melanoma. Briefly: inhibition of tumour cell growth, NCI panel, 48 h.
The compound `NC1=C(NC(=O)Cc2ccc(F)cc2)C(=O)c2ccccc2C1=O` returned a TGI of more than 100 µM.

With `COc1cc(/C=C2/C(=O)N(C(=O)OCC(C)C)C(Cc3cc(OC)c(OC)c(C)c3OC)C(=O)N2Cc2ccccc2)c(OC)c(C)c1OC` (centres undefined), the TGI was more than 100 µM.

As for `NC(=O)N/N=C(\CC1OC(=O)c2ccccc21)c1ccco1` (centres undefined), the TGI is more than 100 µM.

As for `O=c1[nH]c2cc(Cl)ccc2nc1/C(=N\O)C(O)c1cccc([N+](=O)[O-])c1` (centres undefined), the TGI is more than 100 µM.

For another assay, the system named is SK-OV-3 ovarian. Briefly: inhibition of tumour cell growth, NCI panel, 48 h.
Compound `NC1=C(NC(=O)Cc2ccc(F)cc2)C(=O)c2ccccc2C1=O` had a TGI of 56.1 µM.

On to `COc1cc(/C=C2/C(=O)N(C(=O)OCC(C)C)C(Cc3cc(OC)c(OC)c(C)c3OC)C(=O)N2Cc2ccccc2)c(OC)c(C)c1OC` (centres undefined), for which the TGI was more than 100 µM.

On to `NC(=O)N/N=C(\CC1OC(=O)c2ccccc21)c1ccco1` (centres undefined), for which the TGI is more than 100 µM.

In turn, `O=c1[nH]c2cc(Cl)ccc2nc1/C(=N\O)C(O)c1cccc([N+](=O)[O-])c1` (centres undefined) registered a TGI of more than 100 µM.

Another assay concerns SN12C renal. Description: inhibition of tumour cell growth, NCI panel, 48 h.
Turning to `NC1=C(NC(=O)Cc2ccc(F)cc2)C(=O)c2ccccc2C1=O`, the TGI is more than 100 µM.

`COc1cc(/C=C2/C(=O)N(C(=O)OCC(C)C)C(Cc3cc(OC)c(OC)c(C)c3OC)C(=O)N2Cc2ccccc2)c(OC)c(C)c1OC` (centres undefined) yielded a TGI of more than 100 µM.

Turning to `O=c1[nH]c2cc(Cl)ccc2nc1/C(=N\O)C(O)c1cccc([N+](=O)[O-])c1` (centres undefined), the TGI was more than 100 µM.

Another assay deals with SNB-19 CNS. Briefly: inhibition of tumour cell growth, NCI panel, 48 h.
As to `NC1=C(NC(=O)Cc2ccc(F)cc2)C(=O)c2ccccc2C1=O`, the TGI is 59 µM.

For `COc1cc(/C=C2/C(=O)N(C(=O)OCC(C)C)C(Cc3cc(OC)c(OC)c(C)c3OC)C(=O)N2Cc2ccccc2)c(OC)c(C)c1OC` (centres undefined), the TGI was more than 100 µM.

`NC(=O)N/N=C(\CC1OC(=O)c2ccccc21)c1ccco1` (centres undefined) returned a TGI of more than 100 µM.

In the case of `O=c1[nH]c2cc(Cl)ccc2nc1/C(=N\O)C(O)c1cccc([N+](=O)[O-])c1` (centres undefined), the TGI is more than 100 µM.

In another assay the test system is SNB-75 CNS. Description: inhibition of tumour cell growth, NCI panel, 48 h.
For the compound `NC1=C(NC(=O)Cc2ccc(F)cc2)C(=O)c2ccccc2C1=O`, the TGI amounted to 52.5 µM.

The compound `COc1cc(/C=C2/C(=O)N(C(=O)OCC(C)C)C(Cc3cc(OC)c(OC)c(C)c3OC)C(=O)N2Cc2ccccc2)c(OC)c(C)c1OC` (centres undefined) returned a TGI of more than 100 µM.

The compound `NC(=O)N/N=C(\CC1OC(=O)c2ccccc21)c1ccco1` (centres undefined) yielded a TGI of more than 100 µM.

In turn, `O=c1[nH]c2cc(Cl)ccc2nc1/C(=N\O)C(O)c1cccc([N+](=O)[O-])c1` (centres undefined) yielded a TGI of more than 100 µM.

Another assay deals with SNB-78 CNS. Briefly: inhibition of tumour cell growth, NCI panel, 48 h.
For `NC1=C(NC(=O)Cc2ccc(F)cc2)C(=O)c2ccccc2C1=O`, the TGI amounted to 65.1 µM.

For the next assay, the system named is SR leukemia. Briefly: inhibition of tumour cell growth, NCI panel, 48 h.
In turn, `NC1=C(NC(=O)Cc2ccc(F)cc2)C(=O)c2ccccc2C1=O` yielded a TGI of more than 100 µM.

`COc1cc(/C=C2/C(=O)N(C(=O)OCC(C)C)C(Cc3cc(OC)c(OC)c(C)c3OC)C(=O)N2Cc2ccccc2)c(OC)c(C)c1OC` (centres undefined) displayed a TGI of more than 100 µM.

In a further assay the test system is SW-620 colon. Description: inhibition of tumour cell growth, NCI panel, 48 h.
`NC1=C(NC(=O)Cc2ccc(F)cc2)C(=O)c2ccccc2C1=O` returned a TGI of more than 100 µM.

Regarding `COc1cc(/C=C2/C(=O)N(C(=O)OCC(C)C)C(Cc3cc(OC)c(OC)c(C)c3OC)C(=O)N2Cc2ccccc2)c(OC)c(C)c1OC` (centres undefined), the TGI is more than 100 µM.

On to `NC(=O)N/N=C(\CC1OC(=O)c2ccccc21)c1ccco1` (centres undefined), for which the TGI is more than 100 µM.

In turn, `O=c1[nH]c2cc(Cl)ccc2nc1/C(=N\O)C(O)c1cccc([N+](=O)[O-])c1` (centres undefined) came in with a TGI of more than 100 µM.

The next assay relates to TK-10 renal. Briefly: inhibition of tumour cell growth, NCI panel, 48 h.
`NC1=C(NC(=O)Cc2ccc(F)cc2)C(=O)c2ccccc2C1=O` gave a TGI of 59 µM.

Turning to `COc1cc(/C=C2/C(=O)N(C(=O)OCC(C)C)C(Cc3cc(OC)c(OC)c(C)c3OC)C(=O)N2Cc2ccccc2)c(OC)c(C)c1OC` (centres undefined), the TGI was more than 100 µM.

The compound `NC(=O)N/N=C(\CC1OC(=O)c2ccccc21)c1ccco1` (centres undefined) came in with a TGI of more than 100 µM.

With `O=c1[nH]c2cc(Cl)ccc2nc1/C(=N\O)C(O)c1cccc([N+](=O)[O-])c1` (centres undefined), the TGI was more than 100 µM.

The subject of a further assay is U251 CNS. Briefly: inhibition of tumour cell growth, NCI panel, 48 h.
`NC1=C(NC(=O)Cc2ccc(F)cc2)C(=O)c2ccccc2C1=O`: the TGI came out at 46.8 µM.

The compound `COc1cc(/C=C2/C(=O)N(C(=O)OCC(C)C)C(Cc3cc(OC)c(OC)c(C)c3OC)C(=O)N2Cc2ccccc2)c(OC)c(C)c1OC` (centres undefined) had a TGI of more than 100 µM.

Another assay has as its system UACC-257 melanoma. Description: inhibition of tumour cell growth, NCI panel, 48 h.
In turn, `NC1=C(NC(=O)Cc2ccc(F)cc2)C(=O)c2ccccc2C1=O` had a TGI of more than 100 µM.

The compound `COc1cc(/C=C2/C(=O)N(C(=O)OCC(C)C)C(Cc3cc(OC)c(OC)c(C)c3OC)C(=O)N2Cc2ccccc2)c(OC)c(C)c1OC` (centres undefined) showed a TGI of more than 100 µM.

Turning to `NC(=O)N/N=C(\CC1OC(=O)c2ccccc21)c1ccco1` (centres undefined), the TGI was more than 100 µM.

`O=c1[nH]c2cc(Cl)ccc2nc1/C(=N\O)C(O)c1cccc([N+](=O)[O-])c1` (centres undefined) displayed a TGI of more than 100 µM.

For the next assay, the system named is UACC-62 melanoma. Briefly: inhibition of tumour cell growth, NCI panel, 48 h.
With `NC1=C(NC(=O)Cc2ccc(F)cc2)C(=O)c2ccccc2C1=O`, the TGI was more than 100 µM.

In turn, `COc1cc(/C=C2/C(=O)N(C(=O)OCC(C)C)C(Cc3cc(OC)c(OC)c(C)c3OC)C(=O)N2Cc2ccccc2)c(OC)c(C)c1OC` (centres undefined) yielded a TGI of more than 100 µM.

The compound `NC(=O)N/N=C(\CC1OC(=O)c2ccccc21)c1ccco1` (centres undefined) had a TGI of more than 100 µM.

Take `O=c1[nH]c2cc(Cl)ccc2nc1/C(=N\O)C(O)c1cccc([N+](=O)[O-])c1` (centres undefined): the TGI is more than 100 µM.

The next assay relates to UO-31 renal. Description: inhibition of tumour cell growth, NCI panel, 48 h.
In turn, `NC1=C(NC(=O)Cc2ccc(F)cc2)C(=O)c2ccccc2C1=O` registered a TGI of more than 100 µM.

`COc1cc(/C=C2/C(=O)N(C(=O)OCC(C)C)C(Cc3cc(OC)c(OC)c(C)c3OC)C(=O)N2Cc2ccccc2)c(OC)c(C)c1OC` (centres undefined) displayed a TGI of more than 100 µM.

In turn, `NC(=O)N/N=C(\CC1OC(=O)c2ccccc21)c1ccco1` (centres undefined) gave a TGI of more than 100 µM.

For the compound `O=c1[nH]c2cc(Cl)ccc2nc1/C(=N\O)C(O)c1cccc([N+](=O)[O-])c1` (centres undefined), the TGI is more than 100 µM.

The next assay deals with XF 498 CNS. Briefly: inhibition of tumour cell growth, NCI panel, 48 h.
`NC1=C(NC(=O)Cc2ccc(F)cc2)C(=O)c2ccccc2C1=O` displayed a TGI of more than 100 µM.

In the case of `O=c1[nH]c2cc(Cl)ccc2nc1/C(=N\O)C(O)c1cccc([N+](=O)[O-])c1` (centres undefined), the TGI is more than 100 µM.
